Measurements taken from PMC10976043, “Function and Mechanism of Antiviral Wasp Venom Peptide Protopolybia-MP III and Its Derivatives against HSV-1” (Toxins, 2024).
Like-named read-outs stand apart in the source and are kept apart here. Ends that are not written are not given here.

What was measured:
[1] = tested on: human corneal epithelial cells (HCEC); test: CCK8 cytotoxicity assay, HCEC; type: cell-based; conditions: 40 μg/mL, 24 h
Method: (§1) Figure 2 Protopolybia-MP III inhibits HSV-1 replication in human cell lines. (A) Cytotoxicities of Protopolybia-MP III to A549 cells, HCEC, and SK-N-MC. Cells were treated with Protopolybia-MP III at different concentrations or PBS for 24 h, and then cytotoxicities were determined by the CCK8 assay. (B,C) Suppression of intracellular HSV-1 infection by Protopolybia-MP III in A549 cells, HCEC, and SK-N-MC. Cells were preincubated with Protopolybia-MP III at different concentrations or PBS for 1 h and then infected with HSV-1 at an MOI of 1. After 24 h, the cells were collected. Intracellular HSV-1 RNA was analyzed by qPCR (B), and intracellular HSV-1 ICP0 protein expression levels were analyzed by Western blotting (C). (D) Inhibition of Protopolybia-MP III on extracellular HSV-1 particles in A549 cells, HCEC, and SK-N-MC. Cells were treated with Protopolybia-MP III at different concentrations or PBS for 24 h, and then the supernatant was collected and evaluated in a plaque formation assay. * p < 0.05. ** p < 0.01. *** p < 0.001.
Cells were seeded in a 96-well plate (7000–10,000 cells per well) and cultured at 37 °C overnight. Peptides in a series of concentrations were added to the medium, and cells were then incubated at 37 °C for 24 h. […] Finally, the absorbance was measured at 450 nm using a microplate reader (BioTek, Winooski, VT, USA).

HSV-1 [2] = test: HSV-1 life cycle stage assay (different modes of peptide treatment), qPCR; type: cell-based, herpes simplex virus type 1
Method: To determine the exact step at which Protopolybia-MP III blocks HSV-1 infection, we conducted an experiment with different modes of peptide treatment in Vero cells (Figure 3A). […] Then, we detected the protective effect of Protopolybia-MP III by pretreating Vero cells with 20 μg/mL Protopolybia-MP III before HSV-1 infection.
Figure 3 Protopolybia-MP III inhibits multiple phases of the HSV-1 life cycle. (A) Schematic diagram for studying stage at which Protopolybia-MP III acts on the HSV-1 life cycle. (B) Effects of Protopolybia-MP III on the attachment, entry/fusion, and post-entry stages of the HSV-1 life cycle. Vero cells were infected with HSV-1 at an MOI of 1 and treated with 20 μg/mL Protopolybia-MP III as described in (A). After 24 h, cells were collected, and intracellular HSV-1 RNA was analyzed by qPCR. (C) The effect of Protopolybia-MP III on cell protection against HSV-1 infection. Vero cells were treated with 20 μg/mL Protopolybia-MP III or PBS and infected with HSV-1 at an MOI of 1 as described in (A). After 24 h, the cells were collected, and intracellular HSV-1 RNA was analyzed by qPCR. ns, no significance. ** p < 0.01. *** p < 0.001.
(§2) Cells were collected and lysed using TRIzol reagent (Beyotime Biotechnology, Shanghai, China) to release the intracellular total RNA, followed by precipitation with isopropanol. The first-strand cDNA was reverse-transcribed by the HiScript III 1st Strand cDNA Synthesis Kit (+gDNA wiper) (Vazyme, Nanjing, China). The cDNA was quantitated by qPCR with primers using Taq Pro Universal SYBR qPCR Master Mix (Vazyme). The HSV-1 primers were 5′-[…]-3′ (sense) and 5′-[…]-3′ (antisense). The monkey GAPDH primers were 5′-[…]-3′ (sense) and 5′-[…]-3′ (antisense). The human GAPDH primers were 5′-[…]-3′ (sense) and 5′-[…]-3′ (antisense). qPCR experiments were performed on a Bio-Rad CFX96 Touch (Pleasanton, CA, USA) according to the manufacturer’s instructions.

HSV-1 [3] = type: cell-based, herpes simplex virus type 1; conditions: for effect on intracellular HSV-1 RNA: different concentrations, HSV-1 MOI 1, 24 h, qPCR
Method: (A) Amino acid sequence of Protopolybia-MP III. Basic residues are labeled blue, and acidic residues are labeled red. (B,C) Suppression of intracellular HSV-1 infection by Protopolybia-MP III. Cells were preincubated with Protopolybia-MP III at different concentrations or PBS for 1 h and then infected with HSV-1 at a multiplicity of infection (MOI) of 1. After 24 h, the cells were collected. Intracellular HSV-1 RNA was analyzed by qPCR (B), and intracellular HSV-1 ICP0 protein levels were analyzed by Western blotting (C). (D) Suppression of Protopolybia-MP III on extracellular HSV-1 particles. Cells were treated with Protopolybia-MP III at different concentrations or PBS for 24 h, and then the supernatant was collected and evaluated in a plaque formation assay. (E) Cytotoxicity of Protopolybia-MP III to Vero cells. Cells were treated with Protopolybia-MP III or PBS at different concentrations for 24 h, and then the cytotoxicity was determined by CCK8 assay. * p < 0.05. ** p < 0.01. *** p < 0.001.
as §1
HSV-1 was kindly provided by Professor Zhijian Cao of Wuhan University. Cells were infected with HSV-1 at an MOI of 1 for 24 h. Then, cells were collected for qPCR, Western blotting, and immunofluorescence assays, and the extracellular supernatant was used for plaque formation assays.
as §2

[4] = Vero cells, 20 μg/mL, HSV-1 MOI 1, 24 h, qPCR of HSV-1 RNA

**Q.** Which “cytotoxicity to HCEC” value [1] does the source give for “INWLKLGKAVIDAL-NH2 [Protopolybia-MP III]” here?
**A.** almost nontoxic

**Q.** And the “protection of cells from HSV-1 infection (pretreatment)” value (HSV-1 [2]; Vero cells pretreated with 20 μg/mL before HSV-1 infection, MOI 1, 24 h, qPCR)?
**A.** almost no effect

**Q.** And the “inhibitory rate, attachment stage of the HSV-1 life cycle” value (HSV-1 [2]; [4])?
**A.** 57%

**Q.** What about the “inhibitory rate, entry/fusion stage of the HSV-1 life cycle” value (HSV-1 [2]; [4]) of the same substance?
**A.** 84%

**Q.** What about the “inhibitory rate, post-entry stage of the HSV-1 life cycle” value (HSV-1 [2]; [4]) of the same substance?
**A.** 66%

**Q.** And the “50% inhibitory concentration (IC50) against HSV-1 RNA” value (HSV-1 [3]; 1 h)?
**A.** 5.132 ± 1.054 µg/mL

**Q.** And the “inhibition rate on intracellular HSV-1 RNA” value (from here on “inhibition rate”) (HSV-1 [3]; 1 h, 5 μg/mL)?
**A.** 50%

**Q.** What about the “inhibition rate” value (HSV-1 [3]; 1 h, 10 μg/mL) of the same substance?
**A.** 73%

**Q.** What about the “inhibition rate” value (HSV-1 [3]; 1 h, 20 μg/mL) of the same substance?
**A.** 94%

**Q.** And the “effect on intracellular HSV-1 RNA” value (HSV-1 [3]; A549 cells)?
**A.** suppressed HSV-1 RNA

**Q.** What about the “effect on intracellular HSV-1 RNA” value (HSV-1 [3]; HCEC) of the same substance?
**A.** suppressed HSV-1 RNA

**Q.** And the “effect on intracellular HSV-1 RNA” value (HSV-1 [3]; SK-N-MC)?
**A.** suppressed HSV-1 RNA
